From US20260069596A1 (Cardiff Oncology, Inc., priority 2024, published 2026)
“Also recorded” adds a separate entry of the source.

Columns and labels:
[1] = test system: advanced/metastatic solid tumors; details: single agent; cited from earlier work
[2] = molecular target: T1, CYP1A2 (Homo sapiens, UniProt P05177); details: human liver microsomes; cited from earlier work
T1 construct: was investigated using human liver microsomes; from tissue; host or cells: human liver microsomes
T1 sequence (P05177 1-516): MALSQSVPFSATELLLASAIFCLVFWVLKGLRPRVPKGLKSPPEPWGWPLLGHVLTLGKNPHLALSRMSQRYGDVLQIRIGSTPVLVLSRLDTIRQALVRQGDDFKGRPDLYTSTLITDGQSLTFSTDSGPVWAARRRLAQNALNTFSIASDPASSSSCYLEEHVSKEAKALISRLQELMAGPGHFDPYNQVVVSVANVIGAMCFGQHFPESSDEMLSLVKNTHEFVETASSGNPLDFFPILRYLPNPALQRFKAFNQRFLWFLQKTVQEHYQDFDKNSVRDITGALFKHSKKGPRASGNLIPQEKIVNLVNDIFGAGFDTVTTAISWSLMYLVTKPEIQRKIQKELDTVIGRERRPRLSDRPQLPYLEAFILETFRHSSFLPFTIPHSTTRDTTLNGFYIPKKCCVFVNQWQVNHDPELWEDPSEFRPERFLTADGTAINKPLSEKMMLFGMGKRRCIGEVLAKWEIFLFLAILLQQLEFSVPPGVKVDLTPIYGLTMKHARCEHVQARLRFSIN

[3] = test system: RAS^WT colorectal cancer patient derived xenograft (PDX) models; experiment: Example 2: antitumor activity in RAS^WT colorectal cancer PDX models; format: in vivo, mice
Method: Tumor volumes (TV) were measured twice a week, and % tumor volume change (TVC) from baseline was calculated as follows: (TVi/TV0−1)×100. Tumor stasis defined as TVC between 0 and 20%, and tumor regression as TVC less than 0% at last measurement. Results are presented as mean±SEM.

[4] = cited from earlier work

CN1CCN(c2ccc(OC(F)(F)F)c(Nc3ncc4c(n3)-c3c(c(C(N)=O)nn3CCO)CC4)c2)CC1 [Onvansertib, 1-(2-hydroxyethyl)-8-{[5-(4-methylpiperazin-1-yl)-2-(trifluoromethoxy)phenyl]amino}-4,5-dihydro-1H-pyrazolo[4,3-h]quinazoline-3-carboxamide]
best observed treatment response [1]: stable disease | inhibitory effect against CYP1A2 [2]: No significant inhibitory effects | models with tumor stasis or regression ([3]; 7 PDXs sensitive to cetuximab): five | models with potent antitumor activity ([3]; PDX models sensitive to cetuximab, 71%): 5/7 | models with tumor regression (TVC less than 0%) ([3]; all 20 models): 11 models | models with tumor stasis (TVC between 0 and 20%) ([3]; all 20 models): 3 models | DLTs ([4]; doses of 6, 12, and 24 mg/m^2/day, oral, 5 consecutive days every 3 weeks): No DLTs | primary dose-limiting toxicities / primary toxicities ([4]; phase I, patients with advanced/metastatic solid tumors): neutropenia and thrombocytopenia; also recorded: thrombocytopenia and neutropenia | recovery time of hematologic toxicities ([4]; reversible toxicities): ≤ 3 weeks
